Measured values taken from US10919889B2, “Chiral heterocyclic compound with hedgehog pathway antagonist activity, method and use thereof” (SUZHOU KINTOR PHARMACEUTICALS, INC., priority 2016, dated 2021).
“Also recorded” adds a separate entry of the source.

Legend:
[1] = target: T1, CYP2D6 (Homo sapiens, UniProt P10635); test: CYP liver enzyme inhibition experiment, CYP-2D6; type: in vitro ADME; settings: human liver microsomes, pH 7.4, probe dextromethorphan, test compound 10 μM, HLM, dextromethorphan 5 μM, read-out: CYP-2D6 Inhibitory rate (%)
T1 construct: containing HLM (0.2 mg/mL), phosphate buffer (100 mM, pH 7.4); from tissue; host or cells: liver microsomes (HLM)
T1 sequence (P10635 whole entry): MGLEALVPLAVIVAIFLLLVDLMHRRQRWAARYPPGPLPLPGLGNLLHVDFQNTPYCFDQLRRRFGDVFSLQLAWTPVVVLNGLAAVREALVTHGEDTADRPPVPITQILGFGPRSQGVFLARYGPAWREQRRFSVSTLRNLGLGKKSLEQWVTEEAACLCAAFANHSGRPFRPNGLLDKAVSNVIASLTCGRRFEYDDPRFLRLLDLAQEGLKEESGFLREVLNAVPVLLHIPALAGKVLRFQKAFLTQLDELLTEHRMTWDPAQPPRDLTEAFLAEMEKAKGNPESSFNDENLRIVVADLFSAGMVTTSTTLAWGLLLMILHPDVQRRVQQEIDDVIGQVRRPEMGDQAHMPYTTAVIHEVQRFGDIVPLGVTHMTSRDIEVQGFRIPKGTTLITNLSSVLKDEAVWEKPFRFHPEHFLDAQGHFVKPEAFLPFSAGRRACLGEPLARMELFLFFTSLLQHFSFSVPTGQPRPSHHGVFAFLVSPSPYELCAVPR
Method: The five major CYP isozymes and their respective probe substrates were: CYP-1A2 (phenacetin, 30 μM), CYP-2C9 (toluenesulfonylurea, 100 μM), CYP-2C19 40 μM), CYP-2D6 (dextromethorphan, 5 μM) and CYP-3A4 (midazolam, 1 μM). All probes were used close to or below their KMS concentrations. The mixture (200 μL) was incubated in a 37° C. constant temperature water bath, containing HLM (0.2 mg/mL), phosphate buffer (100 mM, pH 7.4), NADPH […], test compound (10 μM) and the respective CYP probe substrate. Before the reaction with NADPH, the mixture was pre-incubated for 10 minutes to undergo inhibitor-enzyme interaction. After a specific period of time (10 minutes for CYP-1A2, 2D6 and 3A4; 30 minutes for CYP-2C9 and 2C19), the reaction was quenched by addition to 100 μL solution of appropriate amount of cold acetonitrile. Reaction system was centrifuged and injected into the LC-MS/MS to quantify the concentration of specific metabolite formed from the substrate and the CYP enzyme. Each test compound was tested at least three times independently. […]
Before the start of the reaction with NADPH, the above mixture can be pre-incubated for about 10 minutes to allow inhibitor-enzyme interactions. […] The quenched mixture can be centrifuged, and aliquots of the mixture can then be analyzed by LC-MS/MS to quantify the concentrations of specific metabolic products for each CYP isozyme. […]

[2] = tested on: primary medulloblastoma of Patched (PTCH)+/−, p53−/− mice; test: Mouse tumor model (tumor inhibition); type: in vivo, SCID mice; settings: 100 mg/kg/day, 14 days
Method: Tumor cells from the primary medulloblastoma of Patched (PTCH)+/−, p53−/− mice were injected subcutaneously into the right side of SCID mice. About 7 days after implantation, treatments were started when the tumor volume grew to an average of 200 mm^3. Animals were randomly divided into blank group, compound B administration group and compound B1 administration group. The doses of compound B1 and racemic compound B were 100 mg/kg/day. Tumor volume […] and body weight (g) were recorded every other day. After 14 days of administration, mice were sacrificed and the tumors were removed.
Primary medulloblastoma (5×10^6) from Patched(PTCH)+/−, p53−/− mice can be […] injected into the right sides of SCID mice. Seven days after the injection, treatment with drugs can start when the average size of tumors reaches 200 mm^3. Subjects can be randomly assigned to the control group, the compound B-treatment group and the compound B1-treatment group. Compounds B and B1 can be administered at dosages of about 100 mg/kg/day. The tumor volume and the body weights of the subjects can be measured and recorded every other day. On the 14th day after the drug administration, the subjects can be sacrificed and their tumors can be removed.

inhibition at 10 min, 10 µM [1]	SMILES	effect on tumor volume (in words) [2]	effect on tumor volume (in words) ([2]; listed as chiral compound)	effect on tumor volume (in words) ([2]; listed as racemic compound)
24 ± 3.5%	Cc1cnc(-c2cc(N3CCc4nc(N5CCC(O)CC5)ncc4[C@H]3C)ncc2Cl)c(C)c1 [Compound B1, (R)-1-(6-(5′-chloro-3,5-dimethyl-[2,4′-bipyridin]-2′-yl)-5-methyl-5,6,7,8-tetrahydropyrido[4,3-d]pyrimidin-2-yl)piperidin-4-ol]	reduce the tumor volume to almost disappear; also recorded: may decrease the tumor volume	shrink the tumor volume to almost undetectable	
30 ± 1.7%	Cc1cnc(-c2cc(N3CCc4nc(N5CCC(O)CC5)ncc4C3C)ncc2Cl)c(C)c1 (racemic) [B]	stop the tumor from growing; also recorded: only stopped the growth of tumor; also recorded: may stop the tumors from growing		only stop the tumor growth
